Laboratory results from patent publication US12472193B2, “Methods and compositions for treating and preventing respiratory related diseases and conditions with xylitol-headgroup lipid analogs” (National Jewish Health, priority 2017, dated 2025).
Entries after “also recorded” stand apart in the source; their conditions may differ.

Molecular target: T1, TLR 7 (Mus musculus, UniProt P58681)
T1 construct: endogenous in cells; host or cells: RAW264.7 (ATCC)
T1 sequence (P58681 27-1050): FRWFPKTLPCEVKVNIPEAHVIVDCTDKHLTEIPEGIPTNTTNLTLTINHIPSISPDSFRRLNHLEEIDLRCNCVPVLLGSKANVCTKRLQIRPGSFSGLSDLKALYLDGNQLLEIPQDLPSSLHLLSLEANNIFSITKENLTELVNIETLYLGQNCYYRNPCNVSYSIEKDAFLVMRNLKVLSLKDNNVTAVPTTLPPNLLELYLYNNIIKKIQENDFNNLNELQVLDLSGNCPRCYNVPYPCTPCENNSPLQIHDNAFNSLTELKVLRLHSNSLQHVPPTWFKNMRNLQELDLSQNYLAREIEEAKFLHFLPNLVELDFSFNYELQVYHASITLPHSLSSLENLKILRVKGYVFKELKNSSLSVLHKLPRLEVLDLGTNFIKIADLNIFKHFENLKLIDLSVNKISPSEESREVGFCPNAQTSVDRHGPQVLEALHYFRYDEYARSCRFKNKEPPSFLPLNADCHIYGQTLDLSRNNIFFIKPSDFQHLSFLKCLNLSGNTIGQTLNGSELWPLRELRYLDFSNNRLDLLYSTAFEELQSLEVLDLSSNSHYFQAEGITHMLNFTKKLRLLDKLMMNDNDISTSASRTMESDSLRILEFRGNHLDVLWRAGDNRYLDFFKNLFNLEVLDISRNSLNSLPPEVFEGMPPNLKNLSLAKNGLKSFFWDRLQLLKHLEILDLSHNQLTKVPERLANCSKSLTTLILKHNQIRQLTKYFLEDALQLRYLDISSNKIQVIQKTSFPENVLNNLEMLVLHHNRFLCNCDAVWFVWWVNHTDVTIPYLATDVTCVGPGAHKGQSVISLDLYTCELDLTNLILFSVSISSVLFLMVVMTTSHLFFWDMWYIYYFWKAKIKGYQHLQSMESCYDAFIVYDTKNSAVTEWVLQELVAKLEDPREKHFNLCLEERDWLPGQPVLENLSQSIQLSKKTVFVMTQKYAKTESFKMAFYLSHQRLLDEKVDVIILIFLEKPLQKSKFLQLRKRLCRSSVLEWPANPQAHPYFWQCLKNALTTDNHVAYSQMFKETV
Assay: polyU-induced TNFα secretion by RAW264.7 cells (TLR 7 antagonism)
Type: cell-based
Settings: for antagonism of TLR 7 activation (TNFα release): 20 μg/mL polyU, 20 μg/mL phospholipid, 4 hours; for TLR7 antagonist activity: reduction in cytokine secretion vs activating TLR ligand alone
Procedure: The mouse macrophage cell line, RAW264.7, was obtained from ATCC and maintained in DMEM, supplemented with 10% bovine growth serum and 1× penicillin streptomycin. Cells were maintained at 37° C. with 5% carbon dioxide: 95% air atmosphere within the incubator. Experiments were completed in a 96-well plate where cells were seated at a density of 1×10^5 cells per well, 24 prior to stimulation with TLR agonists and antagonists. Lipids were dried under a stream of nitrogen, hydrated with phosphate-buffered saline (PBS) at 37° C. for one hour, followed by water bath sonication to create liposomes. Each condition for cell stimulation and antagonism was prepared in DMEM in a separate tube and consisted of: control, TLR agonist, TLR agonist+lipid, and lipid alone. 100 μL aliquots of medium+agonists+antagonists were added to each well and incubated at 37° C. for 4 hours. Subsequently, the media were collected, diluted and an enzyme-linked immunosorbent assay (ELISA) was performed to quantify TNFα release by cells.
TLR 7 is an intracellular receptor of the endosomal compartment. TLR 7 was the first innate immune receptor reported druggable with small molecules, however no breakthrough treatments have been discovered with TLR 7 agonists/antagonists yet (T. Y.-H. Wu, “Strategies for Designing Synthetic Immune Agonists,” Immunology, 2016). TLR 7 detects single-stranded RNA (ssRNA) within endosomal compartments. Xylitol lipids were assessed for antagonism of TLR 7 activation in the presence of the synthetic ssRNA analog, polyuridylic acid (polyU). The macrophage cell line, RAW264.7, was used to assess antagonist activity of PX analogs in a TLR 7-dependent manner. Cells were stimulated with 20 μg/mL polyU for 4 hours in the absence or presence of 20 μg/mL phospholipid. After a 4-hour stimulation media were collected and TNFα secretion was quantified by ELISA. […] Saturated, ester-linked phospholipids appear to be ineffective at antagonizing TLR 7 activation where as their unsaturated ester-linked and saturated ether-linked counterparts were effective.

Row | Structure (SMILES) | antagonism of TLR 7 activation (TNFα release) | TLR7 antagonist activity
1 | CCCCCCCC/C=C\CCCCCCCC(=O)O[C@H](COC(=O)CCCCCCCCCCCCCCC)COP(=O)([O-])OCC[N+](C)(C)C [POPC, 1-palmitoyl-2-oleoyl-sn-glycero-3-phosphocholine, reference compound] | not affected | 
2 | CCCCCCCC/C=C\CCCCCCCC(=O)O[C@H](COC(=O)CCCCCCCCCCCCCCC)COP(=O)(O)OCC(O)CO (stereo partly shown) [POPG, palmitoyl-oleoyl-phosphatidylglycerol, reference compound] | markedly inhibited | 
3 | CCCCCCCCC=CCCCCCCCCOCC(COP(=O)(O)OCC(O)C(O)C(O)CO)OCCCCCCCCC=CCCCCCCCC (mixture of isomers) [18:1 DEPX, sn-1-O-octadecenyl, sn-2-O-octadecenyl sn-3 glycerol phosphoxylitol] | markedly inhibited; also recorded: inhibit | + (cutoff being greater than a 50% reduction in cytokine secretion compared to activating TLR ligand alone)
4 | CCCCCCCC/C=C\CCCCCCCC(=O)O[C@H](COC(=O)CCCCCCCCCCCCCCC)COP(=O)(O)OCC(O)C(O)C(O)CO (stereo partly shown) [POPX, sn-1-palmitoyl, sn-2-oleoyly sn-3 glycerol phosphoxylitol] |  | + (cutoff being greater than a 50% reduction in cytokine secretion compared to activating TLR ligand alone)
5 | CCCCCCC=CCCCCCCCC(=O)OCC(COP(=O)(O)OCC(O)C(O)C(O)CO)OC(=O)CCCCCCCC=CCCCCCC (mixture of isomers) [16:1 DPPX, sn-1-palmitoleoyl, sn-2-palmitoleoyl sn-3 glycerol phosphoxylitol] | markedly inhibited | + (cutoff being greater than a 50% reduction in cytokine secretion compared to activating TLR ligand alone)
6 | CCCCCCCCC=CCCCCCCCC(=O)OCC(COP(=O)(O)OCC(O)C(O)C(O)CO)OC(=O)CCCCCCCC=CCCCCCCCC (mixture of isomers) [DOPX, sn-1-oleoyl, sn-2-oleoyl sn-3 glycerol phosphoxylitol] | markedly inhibited; also recorded: inhibit | + (cutoff being greater than a 50% reduction in cytokine secretion compared to activating TLR ligand alone)
7 | CCCCCCCCCCCCCCOC[C@H](COP(=O)(O)OCC(O)C(O)C(O)CO)OCCCCCCCCCCCCCC (mixture of isomers) [14:0 DEPX, sn-1-O-myristyl, sn-2-O-myristyl sn-3 glycerol phosphoxylitol] | markedly inhibited | + (cutoff being greater than a 50% reduction in cytokine secretion compared to activating TLR ligand alone)
8 | CCCCCC=CCC=CCCCCCCCC(=O)OCC(COP(=O)(O)OCC(O)C(O)C(O)CO)OC(=O)CCCCCCCC=CCC=CCCCCC (mixture of isomers) [18:2 DLPX, sn-1-linoleoyl, sn-2-linoleoyl sn-3 glycerol phosphoxylitol] | markedly inhibited | + (cutoff being greater than a 50% reduction in cytokine secretion compared to activating TLR ligand alone)
